Values of other authors, collected in patent US8114298B2, “Method, device and system for water treatment” (Bromine Compounds Ltd., priority 2006, dated 2012).

What was measured:
[1] = at 25° C.
[2] = bleach; background statement

| shelf life [2] | Structure (SMILES) | solubility in water [1] |
| --- | --- | --- |
|  | O=c1nc([O-])n(Cl)c(=O)n1Cl.[Na+] [NaDCC, sodium dichloroisocyanurate] | up to 24% |
| 3-6 months | OCl [Sodium Hypochlorite] |  |
